Columns and labels:
physchem [1] = conditions: octanol/water
clinical [2] = conditions: human, in vivo, po
physchem [3] = experiment: physchem
[4] = octanol/water
clinical [5] = conditions: human, in vivo, po; remark: listed apart in the source
[6] = octanol/water; remark: listed apart in the source

Which logD (physchem [1]; pH 6.5, logD) does the source give for `CC(C)NCC(O)c1cc(O)cc(O)c1` (centres undefined) [METAPROTERENOL] here?
The logD was -2.72.

And the bioavailability (clinical [2]; F)?
The bioavailability was < 20%.

What about the pKa (physchem [3]) of the same molecule?
The pKa was 9.3.

What about the “delta logD” value [4] of the same molecule?
The value was -0.9.

With `CNC[C@H](O)c1ccc(O)c(O)c1` [EPINEPHRINE] as the molecule, how does the logD (physchem [1]; pH 6.5, logD) read?
The logD was -3.49.

What about the bioavailability (clinical [2]; F) of the same molecule?
Its bioavailability is < 20%.

And the pKa (physchem [3])?
Its pKa is 9.9.

What about the “delta logD” value [4] of the same molecule?
Its value is -0.9.

For `Cc1nc2n(c(=O)c1CCN1CCC(c3noc4cc(F)ccc34)CC1)CCCC2` [RISPERIDONE], which logD (physchem [1]; pH 6.5) is on record?
The logD was 0.74.

And the bioavailability (clinical [2])?
The bioavailability was 79%.

And the “delta logD” value [4]?
Its value is -0.9.

Which logD (physchem [1]; pH 6.5, logD) does the source give for `COCCOC(=O)C1=C(C)NC(C)=C(C(=O)OC(C)C)C1c1cccc([N+](=O)[O-])c1` (centres undefined) [NIMODIPINE] here?
The logD was 0.73.

And the bioavailability (clinical [2]; F)?
Its bioavailability is < 20%.

What about the “delta logD” value [4] of the same molecule?
The value was 0.

Which logD (physchem [1]; pH 6.5, logD) does the source give for `CC(C)(Sc1cc(C(C)(C)C)c(O)c(C(C)(C)C)c1)Sc1cc(C(C)(C)C)c(O)c(C(C)(C)C)c1` [PROBUCOL] here?
The logD was 7.29.

And the bioavailability (clinical [2]; F)?
The bioavailability was < 20%.

And the “delta logD” value [4]?
The value was 0.

Which results are given for `CCCCCc1cc(O)c2c(c1)OC(C)(C)[C@@H]1CCC(C)=C[C@@H]21` [DRONABINOL]?
logD (physchem [1]; pH 6.5): 4.49; bioavailability (clinical [2]): < 20%; delta logD [4]: 0

With `CN(C/C=C/C#CC(C)(C)C)Cc1cccc2ccccc12` [TERBINAFINE] as the molecule, how does the logD (physchem [1]; pH 6.5, logD) read?
Its logD is 3.3.

What about the bioavailability (clinical [2]; F) of the same molecule?
Its bioavailability is 49%.

And the pKa (physchem [3])?
The pKa was 8.5.

What about the “delta logD” value [4] of the same molecule?
The value was -0.86.

Which results are given for `O=C1CN(/N=C/c2ccc([N+](=O)[O-])o2)C(=O)N1` [NITROFURANTOIN]?
logD (physchem [1]; pH 6.5, logD): -0.47; bioavailability (clinical [2]; F): > 80%; delta logD [4]: 0

With `CC(=O)CCCCn1c(=O)c2c(ncn2C)n(C)c1=O` [PENTOXIFYLLINE] as the molecule, how does the logD (physchem [1]; pH 6.5, logD) read?
The logD was 0.29.

What about the bioavailability (clinical [2]; F) of the same molecule?
Its bioavailability is 49%.

And the “delta logD” value [4]?
Its value is 0.

Which results are given for `CN1CCN(CCCN2c3ccccc3Sc3ccc(Cl)cc32)CC1` [PROCHLORPERAZINE]?
logD (physchem [1]; pH 6.5, logD): 2.51; bioavailability (clinical [2]; F): < 20%; pKa (physchem [3]): 7.5; delta logD [4]: -0.69

For `CCN1CCC[C@H]1CNC(=O)c1c(O)c(Cl)cc(Cl)c1OC` [RACLOPRIDE], which pKa (physchem [3]) is on record?
Its pKa is 9.2.

And the bioavailability (clinical [5])?
Its bioavailability is 79%.

Which logD (physchem [1]; pH 6.5, logD) does the source give for `Nc1nc(=O)[nH]cc1F` [FLUCYTOSINE] here?
The logD was -1.65.

What about the bioavailability (clinical [2]; F) of the same molecule?
The bioavailability was > 80%.

What about the “delta logD” value [4] of the same molecule?
Its value is 0.

With `Cc1nccn1CC1CCc2c(c3ccccc3n2C)C1=O` (centres undefined) [ONDANSETRON] as the molecule, how does the logD (physchem [1]; pH 6.5, logD) read?
Its logD is 1.13.

What about the bioavailability (clinical [2]; F) of the same molecule?
Its bioavailability is 79%.

And the pKa (physchem [3])?
The pKa was 7.3.

And the “delta logD” value [4]?
The value was -0.61.

For `CC(=O)Oc1ccccc1C(=O)O` [ASPIRIN], which logD (physchem [1]; pH 6.5, logD) is on record?
Its logD is -1.81.

And the bioavailability (clinical [2]; F)?
Its bioavailability is 79%.

What about the “delta logD” value [4] of the same molecule?
The value was 0.9.

For `O=c1n(CCCN2CCN(c3cccc(Cl)c3)CC2)nc2ccccn12` [TRAZODONE], which logD (physchem [1]; pH 6.5, logD) is on record?
The logD was 1.47.

What about the bioavailability (clinical [2]; F) of the same molecule?
The bioavailability was > 80%.

What about the pKa (physchem [3]) of the same molecule?
The pKa was 6.7.

What about the “delta logD” value [4] of the same molecule?
Its value is -0.33.

With `COC(=O)C1=C(C#N)NC(C)=C(C(=O)OC(C)C)C1c1cccc([N+](=O)[O-])c1` (centres undefined) [NILVADIPINE] as the molecule, how does the logD (physchem [1]; pH 6.5, logD) read?
The logD was 1.99.

What about the bioavailability (clinical [2]; F) of the same molecule?
The bioavailability was < 20%.

What about the “delta logD” value [4] of the same molecule?
The value was 0.

Which results are given for `CCNC(C)Cc1cccc(C(F)(F)F)c1` (centres undefined) [FENFLURAMINE]?
logD (physchem [1]; pH 6.5): 0.4; bioavailability (clinical [2]): 79%; pKa (physchem [3]): 10; delta logD [4]: -0.9

Which logD (physchem [1]; pH 6.5, logD) does the source give for `Clc1cccc(Cl)c1N=C1NCCN1` [CLONIDINE] here?
The logD was 0.06.

What about the bioavailability (clinical [2]; F) of the same molecule?
The bioavailability was > 80%.

And the pKa (physchem [3])?
The pKa was 8.

And the “delta logD” value [4]?
The value was -0.82.

With `CC(C)(C)NCC(O)c1cc(O)cc(O)c1` (centres undefined) [TERBUTALINE] as the molecule, how does the logD (physchem [1]; pH 6.5, logD) read?
Its logD is -1.82.

And the bioavailability (clinical [2]; F)?
Its bioavailability is < 20%.

And the “delta logD” value [4]?
Its value is -0.89.

With `CCC1(c2ccccc2)C(=O)NC(=O)NC1=O` [PHENOBARBITAL] as the molecule, how does the logD (physchem [1]; pH 6.5) read?
The logD was 1.43.

What about the bioavailability (clinical [2]) of the same molecule?
Its bioavailability is > 80%.

What about the “delta logD” value [4] of the same molecule?
Its value is 0.21.

What does the source list for `C#C[C@]1(O)CC[C@H]2[C@@H]3CCC4=CC(=O)CC[C@@H]4[C@H]3CC[C@@]21C` [NORETHINDRONE]?
logD (physchem [1]; pH 6.5, logD): 2.97; bioavailability (clinical [2]; F): 79%; delta logD [4]: 0

Which logD (physchem [1]; pH 6.5) does the source give for `Oc1ccc2c3c1O[C@H]1[C@@H](O)CC[C@@]4(O)[C@@H](C2)N(CC2CCC2)CC[C@]314` [NALBUPHINE] here?
The logD was -0.63.

And the bioavailability (clinical [2])?
Its bioavailability is < 20%.

What about the pKa (physchem [3]) of the same molecule?
The pKa was 8.7.

And the “delta logD” value [4]?
Its value is -0.88.

For `Oc1ccc(C(O)C2CCCCN2)cc1O` (centres undefined) [RIMITEROL], which logD (physchem [1]; pH 6.5) is on record?
Its logD is -3.13.

What about the bioavailability (clinical [2]) of the same molecule?
Its bioavailability is < 20%.

What about the pKa (physchem [3]) of the same molecule?
Its pKa is 9.9.

And the “delta logD” value [4]?
Its value is -0.9.

What does the source list for `CC(C)NCC(O)COc1cccc2[nH]ccc12` (centres undefined) [PINDOLOL]?
pKa (physchem [3]): 8.8; bioavailability (clinical [5]): 79%; delta logD [6]: -0.88

With `C#C[C@]1(O)CC[C@H]2[C@@H]3CCc4cc(O)ccc4[C@H]3CC[C@@]21C` [ETHINYL ESTRADIOL] as the molecule, how does the logD (physchem [1]; pH 6.5, logD) read?
Its logD is 3.67.

And the bioavailability (clinical [2]; F)?
The bioavailability was 49%.

And the “delta logD” value [4]?
Its value is 0.

What does the source list for `CNC1=Nc2ccc(Cl)cc2C(c2ccccc2)=[N+]([O-])C1` [CHLORDIAZEPOXIDE]?
logD (physchem [1]; pH 6.5): 2.43; bioavailability (clinical [2]): > 80%; pKa (physchem [3]): 4.8; delta logD [4]: -0.01

For `Nc1nc2ccc(OC(F)(F)F)cc2s1` [RILUZOLE], which pKa (physchem [3]) is on record?
Its pKa is 6.5.

What about the bioavailability (clinical [5]) of the same molecule?
The bioavailability was 79%.

Which logD (physchem [1]; pH 6.5) does the source give for `O=C1CN=C(c2ccccc2Cl)c2cc([N+](=O)[O-])ccc2N1` [CLONAZEPAM] here?
Its logD is 2.41.

And the bioavailability (clinical [2])?
Its bioavailability is > 80%.

What about the “delta logD” value [4] of the same molecule?
The value was 0.

Which results are given for `NNC(=O)c1ccncc1` [ISONIAZID]?
logD (physchem [1]; pH 6.5, logD): -0.7; bioavailability (clinical [2]; F): > 80%; delta logD [4]: 0

With `CC(C)(C)NC(=O)C1CC[C@H]2[C@]3(C)CC[C@H]4NC(=O)C=C[C@]4(C)[C@H]3CC[C@]12C` (some centres undefined) as the molecule, how does the logD (physchem [1]; pH 6.5, logD) read?
The logD was 3.03.

And the bioavailability (clinical [2]; F)?
Its bioavailability is 79%.

What about the “delta logD” value [4] of the same molecule?
The value was 0.
